In brackets after ≈: the same amount, converted by molar mass.
How the values were obtained:
[1] = target: T1, DNA topoisomerase 2-alpha (Homo sapiens, UniProt P11388); test: Inhibition of human DNA topoisomerase 2 alpha assessed as relaxation of supercoiled plasmid pNO1 DNA incubated for 30 mins by fluorescence based analysis
[2] = Metabolic stability in rat liver S9 fraction assessed as half life at 100 uM measured upto 120 mins in presence of NADPH by HPLC analysis; format: ADME, subcellular
MCF7 = test: cells; settings: Homo sapiens, MCF7, 72 h
Description: Cytotoxicity against human MCF7 cells assessed as inhibition of cell growth incubated for 72 hrs by MTS assay

HepG2 = test: cells; settings: Homo sapiens, HepG2, 72 h
Description: Cytotoxicity against human HepG2 cells assessed as inhibition of cell growth incubated for 72 hrs by MTS assay

[3] = Thermodynamic aqueous solubility of compound in PBS buffer at pH 7.4 at 25 degreeC measured after 24 hrs by UPLC analysis; format: physicochemical; settings: read-out: Therm_solubility
K562 = test: Cytotoxicity against human K562 cells assessed as reduction in cell viability at 10 uM by MTT assay; format: functional, cell-based
[4] = target: T1, DNA topoisomerase 2-alpha; test: Inhibition of human DNA topoisomerase 2 alpha assessed as ATP hydrolysis measured for 30 mins by absorbance based assay
[5] = Cytotoxicity against HEK293 cells assessed as inhibition of cell growth incubated for 72 hrs by MTS assay; format: toxicity, cell-based; settings: human
[6] = Selectivity index, ratio of IC50 for HEK293 cells to IC50 for human MCF7 cells; format: toxicity; settings: HEK293 cells versus MCF7 cells, read-out: Ratio IC50
[7] = Selectivity index, ratio of IC50 for HEK293 cells to IC50 for human HepG2 cells; format: toxicity; settings: HEK293 cells versus HepG2 cells, read-out: Ratio IC50
DNA topoisomerase 1 = target: T2, DNA topoisomerase 1 (Homo sapiens, UniProt P11387); test: Inhibition of human DNA Topoisomerase 1 assessed as relaxation of supercoiled plasmid pBR322 DNA incubated for 30 mins by ethidium bromide staining based agarose gel electrophoresis
T2 sequence (P11387 whole entry): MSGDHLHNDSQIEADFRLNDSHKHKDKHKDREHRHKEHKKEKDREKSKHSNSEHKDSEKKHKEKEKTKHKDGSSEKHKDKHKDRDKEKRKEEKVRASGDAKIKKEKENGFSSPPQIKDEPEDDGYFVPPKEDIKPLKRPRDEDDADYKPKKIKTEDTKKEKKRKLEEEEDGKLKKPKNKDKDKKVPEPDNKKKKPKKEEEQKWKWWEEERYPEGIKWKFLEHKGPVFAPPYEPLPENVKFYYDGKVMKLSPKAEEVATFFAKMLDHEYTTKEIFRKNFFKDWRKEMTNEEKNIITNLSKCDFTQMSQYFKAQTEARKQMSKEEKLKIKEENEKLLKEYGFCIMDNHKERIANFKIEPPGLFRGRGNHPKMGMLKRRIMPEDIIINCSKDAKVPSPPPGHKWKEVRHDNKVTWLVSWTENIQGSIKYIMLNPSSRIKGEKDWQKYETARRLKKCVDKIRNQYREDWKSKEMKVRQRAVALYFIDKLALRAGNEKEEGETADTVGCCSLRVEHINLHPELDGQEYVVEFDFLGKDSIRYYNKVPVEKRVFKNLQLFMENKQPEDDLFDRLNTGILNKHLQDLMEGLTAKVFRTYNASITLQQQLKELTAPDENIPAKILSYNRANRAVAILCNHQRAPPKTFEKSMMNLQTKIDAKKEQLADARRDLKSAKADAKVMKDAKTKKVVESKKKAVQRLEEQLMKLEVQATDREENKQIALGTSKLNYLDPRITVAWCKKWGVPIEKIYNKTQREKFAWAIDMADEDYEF

T1 sequence (P11388 whole entry): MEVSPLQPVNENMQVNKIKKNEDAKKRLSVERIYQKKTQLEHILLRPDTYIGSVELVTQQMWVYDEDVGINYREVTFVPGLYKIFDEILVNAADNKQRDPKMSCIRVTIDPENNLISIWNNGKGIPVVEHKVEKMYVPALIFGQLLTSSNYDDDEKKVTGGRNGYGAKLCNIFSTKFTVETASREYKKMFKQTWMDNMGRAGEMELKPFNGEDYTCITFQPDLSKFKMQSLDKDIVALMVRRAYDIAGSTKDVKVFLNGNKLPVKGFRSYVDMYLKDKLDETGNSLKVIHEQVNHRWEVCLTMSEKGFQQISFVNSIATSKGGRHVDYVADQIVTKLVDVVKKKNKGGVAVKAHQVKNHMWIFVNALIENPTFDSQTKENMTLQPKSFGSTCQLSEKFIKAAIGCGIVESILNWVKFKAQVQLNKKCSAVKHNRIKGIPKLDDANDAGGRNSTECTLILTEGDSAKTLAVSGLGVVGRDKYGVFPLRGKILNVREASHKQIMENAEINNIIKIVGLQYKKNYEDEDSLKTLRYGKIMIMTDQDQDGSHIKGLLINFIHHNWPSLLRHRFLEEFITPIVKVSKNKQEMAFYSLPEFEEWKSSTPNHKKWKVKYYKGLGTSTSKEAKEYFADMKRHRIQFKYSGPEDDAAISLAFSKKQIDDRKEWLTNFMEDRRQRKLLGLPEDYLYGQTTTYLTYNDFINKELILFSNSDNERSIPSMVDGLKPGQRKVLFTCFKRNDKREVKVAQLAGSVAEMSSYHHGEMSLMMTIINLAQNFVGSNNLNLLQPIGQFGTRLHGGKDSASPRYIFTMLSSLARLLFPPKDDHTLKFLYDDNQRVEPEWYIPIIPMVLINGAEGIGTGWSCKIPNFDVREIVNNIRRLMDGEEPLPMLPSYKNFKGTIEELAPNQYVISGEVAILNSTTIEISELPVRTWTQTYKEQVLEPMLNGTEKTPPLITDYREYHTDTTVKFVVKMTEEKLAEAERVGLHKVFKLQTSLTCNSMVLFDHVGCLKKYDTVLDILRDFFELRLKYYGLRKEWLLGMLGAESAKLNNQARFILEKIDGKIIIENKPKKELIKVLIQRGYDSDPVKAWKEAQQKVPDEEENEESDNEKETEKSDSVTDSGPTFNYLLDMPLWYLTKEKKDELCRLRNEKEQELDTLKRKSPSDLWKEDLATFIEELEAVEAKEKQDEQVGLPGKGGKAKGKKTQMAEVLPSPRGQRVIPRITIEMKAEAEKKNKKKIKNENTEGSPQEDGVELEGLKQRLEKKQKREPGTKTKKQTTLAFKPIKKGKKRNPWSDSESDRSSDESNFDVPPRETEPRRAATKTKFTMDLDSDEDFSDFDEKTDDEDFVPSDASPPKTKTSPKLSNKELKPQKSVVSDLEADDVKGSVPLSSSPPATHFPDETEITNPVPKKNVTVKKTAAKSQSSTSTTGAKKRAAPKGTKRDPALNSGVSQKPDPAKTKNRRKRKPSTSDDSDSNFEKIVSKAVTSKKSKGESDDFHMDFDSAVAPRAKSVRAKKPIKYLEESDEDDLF

Structure (SMILES)	IC50 [1] [µM]	other results
Cc1[nH]c(C(=O)Nc2ccc(C(N)=O)cc2OCc2cccc(C(=O)NCCN)c2)c(Cl)c1Cl.Cl	1	half-life at 100 µM [2]: > 5 h
Cc1[nH]c(C(=O)Nc2ccccc2OC2CCN(C(=O)OC(C)(C)C)C2)c(Cl)c1Cl (centres undefined)	> 100	
CCc1[nH]c(C(=O)Nc2ccc(C(N)=O)cc2OC(C)C)nc1Cl	6.6	half-life at 100 µM [2]: > 5 h
Cc1[nH]c(C(=O)Nc2ccc(C(N)=O)cc2NCCN)c(Cl)c1Cl.Cl	> 100	half-life at 100 µM [2]: > 5 h
Cc1[nH]c(C(=O)Nc2ccc(C(=O)N[C@@H](Cc3ccccc3)C(=O)O)cc2OC(C)C)c(Cl)c1Cl	5	IC50 (MCF7): > 50 µM; IC50 (HepG2): > 50 µM
Cc1[nH]c(C(=O)Nc2ccc(C(=O)N3CCNCC3)cc2OC(C)C)c(Cl)c1Cl	> 100	
Cc1[nH]c(C(=O)Nc2ccc(C(=O)NC3CCNCC3)cc2OC(C)C)c(Cl)c1Cl	4.5	
Cc1[nH]c(C(=O)Nc2ccc(C(N)=O)cc2N2CCOC(C)C2)c(Cl)c1Cl (centres undefined)	> 100	
Cc1[nH]c(C(=O)Nc2ccc(C(N)=O)cc2OCC(=O)N2CCCC(N)C2)c(Cl)c1Cl (centres undefined)	8.3	
COC(=O)[C@@H](C)NC(=O)c1ccc(NC(=O)c2[nH]c(C)c(Cl)c2Cl)c(OC2CCNCC2)c1	45	IC50 (MCF7): 8.7 µM; IC50 (HepG2): 9.8 µM
Cc1[nH]c(C(=O)Nc2cc(C(N)=O)ccc2OC(C)C)c(Cl)c1Cl	> 100	
Cc1[nH]c(C(=O)Nc2ccc(C(N)=O)cc2OCC(=O)N2CCCC(NC(=O)OC(C)(C)C)C2)c(Cl)c1Cl (centres undefined)	> 100	
COc1ccc(NC(=O)c2cc(Br)c(Br)[nH]2)c(C(=O)NCc2ccc(C(=O)O)cc2)c1	39	half-life at 100 µM [2]: 4.83 h
Cc1[nH]c(C(=O)Nc2ccccc2OC2CCN(C(=O)OC(C)(C)C)CC2)c(Cl)c1Cl	> 100	
Cc1[nH]c(C(=O)Nc2ccc(C(=O)NCC3CCNCC3)cc2OC(C)C)c(Cl)c1Cl.Cl	2.9	solubility thermodynamic at 24 h [3]: 15 µM
Cc1[nH]c(C(=O)Nc2ccc(C(=O)NC3CCCNC3)cc2OC(C)C)c(Cl)c1Cl.Cl (centres undefined)	1.3	solubility thermodynamic at 24 h [3]: 4.6 µM; half-life at 100 µM [2]: > 5 h
CCNC(=O)Nc1ccc(OC2CCNCC2)c(NC(=O)c2[nH]c(C)c(Cl)c2Cl)c1	38	IC50 (MCF7): 33 µM; IC50 (HepG2): 38 µM
O=C(O)c1ccc(CCNC(=O)c2cc(O)ccc2NC(=O)c2cc(Br)c(Br)[nH]2)cc1	22	
Cc1ccc(C(=O)Nc2ccccc2OCc2cccc(C(=O)NCCN)c2)[nH]1	> 100	
Cc1[nH]c(C(=O)Nc2ccc(C(N)=O)cc2OC2CCNCC2)c(Cl)c1Cl.Cl		half-life at 100 µM [2]: > 5 h
Cc1[nH]c(C(=O)Nc2ccccc2OC2CCNCC2)c(Cl)c1Cl.Cl		half-life at 100 µM [2]: > 5 h
NS(=O)(=O)c1ccc(CNC(=O)c2cc(O)ccc2NC(=O)c2cc(Br)c(Br)[nH]2)cc1	> 100	
Cc1[nH]c(C(=O)Nc2ccc(C(=O)NCC(=O)O)cc2OC(C)C)c(Cl)c1Cl	7.2	IC50 (MCF7): > 50 µM; IC50 (HepG2): > 50 µM
NCCNC(=O)c1cccc(COc2ccccc2NC(=O)c2cc([N+](=O)[O-])c[nH]2)c1	> 100	
CCc1[nH]c(C(=O)Nc2ccccc2OCc2cccc(C(=O)NCCN)c2)nc1Cl	37	
Cc1[nH]c(C(=O)Nc2cc(C(N)=O)ccc2OC2CCNC2)c(Cl)c1Cl (centres undefined)	32	

Structure (SMILES)	IC50 [1] [µM]	other results
Cc1[nH]c(C(=O)Nc2cc(C(=O)O)ccc2OC2CCNCC2)c(Cl)c1Cl	> 100	
Cc1[nH]c(C(=O)Nc2ccccc2OCc2cccc(C(=O)NC3CCNC3)c2)c(Cl)c1Cl.Cl (centres undefined)	6.3	solubility thermodynamic at 24 h [3]: 15 µM; IC50 (K562): 0.57 µM
Cc1[nH]c(C(=O)Nc2ccccc2OCc2cccc(C(=O)NCCN)c2)c(Cl)c1Cl.Cl	3	IC50 [4]: 2.3 µM; IC50 at 72 h [5]: 27 µM; selectivity ratio [6]: 3; selectivity ratio [7]: 1.8; solubility thermodynamic at 24 h [3]: 18 µM; half-life at 100 µM [2]: > 5 h; IC50 (MCF7): 9 µM; IC50 (HepG2): 15 µM
Cc1[nH]c(C(=O)Nc2ccc(O)cc2C(=O)NCc2ccc(C(=O)O)cc2)c(Cl)c1Cl	24	
NCCNC(=O)c1cccc(COc2ccccc2NC(=O)c2cc(Br)c(Br)[nH]2)c1	45	
Cc1[nH]c(C(=O)Nc2ccccc2OCc2cccc(C(=O)NC3CCCNC3)c2)c(Cl)c1Cl.Cl (centres undefined)	7.7	IC50 at 72 h [5]: 2.1 µM; selectivity ratio [6]: 14; selectivity ratio [7]: 16; solubility thermodynamic at 24 h [3]: 10 µM; half-life at 100 µM [2]: > 5 h; IC50 (K562): 0.19 µM; IC50 (MCF7): 0.15 µM; IC50 (HepG2): 0.13 µM
NCCNC(=O)c1cccc(COc2ccccc2NC(=O)c2cc(Cl)c(Cl)[nH]2)c1	76	
Cc1[nH]c(C(=O)Nc2ccccc2OCc2cccc(C(=O)NCCN)c2)cc1F	> 100	
Cc1[nH]c(C(=O)Nc2ccccc2OCc2cccc(C(=O)NCCN)c2)cc1Cl	35	
Cc1[nH]c(C(=O)Nc2ccc(C(N)=O)cc2OCc2cccc(C(=O)NCCC(=O)O)c2)c(Cl)c1Cl	3.4	
Cc1[nH]c(C(=O)Nc2ccccc2OCc2cccc(C(=O)O)c2)c(Cl)c1Cl	29	solubility thermodynamic at 24 h [3]: 2.1 µM (≈ 0.88 µg/mL)
COc1ccc(NC(=O)c2[nH]c(C)c(Br)c2Br)c(C(=O)NCCc2ccc(C(=O)O)cc2)c1	25	
COc1ccc(NC(=O)c2[nH]c(C)c(Cl)c2Cl)c(C(=O)NCc2ccc(C(=O)O)cc2)c1	67	half-life at 100 µM [2]: > 5 h
C[C@]12CC[C@H]3[C@@H](CCC4=CC(=O)CC[C@@]43C)[C@@H]1CC[C@@H]2O [TESTOSTERONE]		half-life at 100 µM [2]: 0.142 h
Cc1[nH]c(C(=O)Nc2ccccc2OCc2cccc(C(=O)N3CCCC(N)C3)c2)c(Cl)c1Cl (centres undefined)	27	IC50 at 72 h [5]: 1.7 µM; selectivity ratio [6]: 1.3; selectivity ratio [7]: 0.9; IC50 (K562): 0.77 µM; IC50 (MCF7): 1.3 µM; IC50 (HepG2): 1.9 µM
Cc1[nH]c(C(=O)Nc2ccc(C(N)=O)cc2N2CCOCC2)c(Cl)c1Cl	> 100	
Cc1[nH]c(C(=O)Nc2ccc(C(=O)N3CCCC(N)C3)cc2OC(C)C)c(Cl)c1Cl (centres undefined)	32	
Cc1[nH]c(C(=O)Nc2cc(C(N)=O)ccc2OCCN)c(Cl)c1Cl	18	
Cc1[nH]c(C(=O)Nc2ccc(C(N)=O)cc2NC(C)C)c(Cl)c1Cl	13	
COc1cc(NS(C)(=O)=O)ccc1Nc1c2ccccc2nc2ccccc12 [AMSACRINE]		IC50 (DNA topoisomerase 1): 74 µM
Cc1[nH]c(C(=O)Nc2ccccc2OCc2cccc(C(N)=O)c2)c(Cl)c1Cl	> 100	
CCc1cnc(C(=O)Nc2ccc(C(N)=O)cc2OC(C)C)[nH]1	> 100	
CCc1nc2nc(Nc3ccc4nc(OCCN5CCOCC5)ccc4c3)nc(NC(C)(C)C)c2[nH]1	0.73	IC50 (MCF7): 7.7 µM; IC50 (HepG2): 11 µM
Cc1[nH]c(C(=O)Nc2ccc(C(N)=O)cc2OCc2cccc(C(=O)NCC(=O)O)c2)c(Cl)c1Cl	3.5	
Cc1[nH]c(C(=O)Nc2cc(C(=O)O)ccc2OC2CCN(C(=O)OC(C)(C)C)CC2)c(Cl)c1Cl	38	
